The source of these data is paper PMC8667925, “New 1,2,4-oxadiazole derivatives with positive mGlu4 receptor modulation activity and antipsychotic-like properties” (Journal of Enzyme Inhibition and Medicinal Chemistry, 2021).

Entries after “also recorded” stand apart in the source; their conditions may differ.

One experiment addresses T1, mGlu4 receptor (Homo sapiens, UniProt Q14833).
T1 construct: mGlu4 receptor NM_000841, mGlu7 receptor NM_000844.2, and mGlu8 receptor NM_000845; expressed in transfected cells; host or cells: T-REx 293
As to the kind of experiment: forskolin-stimulated cAMP assay, PAM mode (EC20 of L-Glu), T-REx 293 cells. Format: cell-based. Particulars: for mGlu4 receptor PAM activity / EC50 / Emax: PAM mode; for mGlu4 receptor PAM activity / Emax: human mGlu4; for EC50: EC20 (3 µM) L-Glu, T-REx 293 cells expressing human mGlu4 receptor; for EC50 / Emax / Fold shift of L-Glu dose-response curve: SEM where given; for Emax: T-REx-293, read-out: GluMax; for Fold shift of L-Glu dose-response curve: in the presence of 10 µM of compound. As to the method:
The activity of the compounds was assessed in vitro in a forskolin-stimulated cAMP assay in T-REx 293 cells expressing human mGlu4 receptors in the presence of an EC20 concentration of L-Glu; a PAM was identified if it potentiated cAMP inhibition by the Gi/o-dependent pathway of mGlu4 receptor activation; i.e. if it was able to produce a leftward shift in the potency of the endogenous agonist.
Determination of the intracellular cAMP through a homogeneous time-resolved fluorescence (HTRF) cAMP dynamic 2 kit from Cisbio (Codolet, France) was described previously by Chruścicka et al.[91]. Briefly, cells were grown in DMEM supplemented with 10% foetal bovine serum (FBS) (tetracycline free). Forty-eight hours before the experiments, mGlu receptor expression was induced by the addition of 0.75 µg/mL tetracycline. Twenty hours before the experiment, FBS and L-Glu were removed from the medium. Thereafter, the cells were scraped and centrifuged. A cell pellet was suspended in Hanks-HEPES (130 mM NaCl, 5.4 mM KCl, 1.8 mM CaCl2, 0.8 mM MgSO4, 0.9 mM NaH2PO4, 20 mM HEPES, and 3.25 mM glucose; pH 7.4). Then, the cell suspension was incubated in the presence of 10 µM forskolin (or 3 µM forskolin for mGlu7 receptor), the agonist L-glutamate and a compound for 5 min. Next, 10 µl of the cell suspension was mixed with 5 µl of cAMP-d2 conjugate and 5 µL of anti-cAMP cryptate conjugate. After 1 h of incubation at rt, the fluorescence at 620 nm and 665 nm was read (Tecan Infinite M1000). The results were calculated as the 665 nm/620 nm ratio multiplied by 10^4. Each sample was prepared in triplicate.
Statistical calculations were performed using GraphPad Prism 5.04 software (GraphPad Software, La Jolla, CA, USA). The curves were fitted to a 3-parametric logistic equation, allowing for the determination of EC50 values. Each data point was analysed in triplicate.

Experiment [1] deals with Albino Swiss mice. Description: modified stress-induced hyperthermia (SIH) in singly housed mice. Format: in vivo. Here is the method: (§1) The compounds were dissolved in a small amount of 100% EtOH and then adjusted with 20% cyclodextrin, and the pH was adjusted to 6.0. The investigated compounds were administered intraperitoneally (i.p.) 60 min before the behavioural test. Control drugs i.e. diazepam, clozapine and imipramine (Sigma–Aldrich, St. Louis, USA), were administered i.p. 60 min before the behavioural test. Cyclodextrin (20%) was used as a vehicle. All solutions were prepared immediately prior to the experiments and were administered at a constant volume of 10 ml/kg.
The procedure for modified stress-induced hyperthermia was adapted from Van der Heyden[93] and based on the procedure introduced by Borsini[94]. Each experimental group consisted of eight to ten animals. The animals were housed individually in a 26 × 21 × 14 cm Macolon cage 24 h before testing. For this assay, the body temperature was measured for each mouse at t = 0 min (T1) and t = +15 min (T2). Albino Swiss mice were placed into a new cage immediately following T1, with the difference in temperature (T2−T1) used as the measure of stress-induced hyperthermia. […] A comparison between T1 in vehicle-treated mice and those administered the test compound was used to determine whether the agent affects body temperature alone. Diazepam (5 mg/kg) was used as the positive control. The rectal temperature was measured to the nearest 0.1 °C with a Physitemp Theralert thermometer, TH-5, Clifton NJ, USA, with the temperature sensor for mice, Type T, Copper-Constantan Thermocouple, Braintree Scientific Inc. The lubricated thermistor probe (2 mm diameter) was inserted 20 mm into the rectum. The mouse was held at the base of the tail during this determination, and the thermistor probe was left in place until a constant reading was obtained for 15 s. The effects of the investigated compounds on the SIH response were investigated after administration of the compounds at doses of 5, 10 and 20 mg/kg.

The test system of experiment [2] is Albino Swiss mice. As to the kind of experiment: DOI-induced head twitch test (HTR). Format: in vivo. To be noted: over the doses 2.5, 5 and 10 mg/kg i.p.; DOI 2.5 mg/kg i.p. Here is the method:
as §1
The experiments were performed according to the procedure described in our previous studies[75]^,[80]. Briefly, to habituate mice to the experimental environment, each animal was transferred to a 12 cm (diameter) × 20 cm (height) glass cage lined with sawdust 30 min before treatment. Test compounds were administered intraperitoneally (i.p.) at doses of 2.5, 5, and 10 mg/kg body weight 60 min before the test was performed. The head twitch response (HTR) in mice was induced by DOI (2.5 mg/kg, i.p.). Immediately after treatment, the number of head twitches was counted during a 20 min session. Haloperidol and clozapine were used as the reference compounds at active doses of 0.2 and 5 mg/kg, respectively.

T1 sequence (Q14833 33-912): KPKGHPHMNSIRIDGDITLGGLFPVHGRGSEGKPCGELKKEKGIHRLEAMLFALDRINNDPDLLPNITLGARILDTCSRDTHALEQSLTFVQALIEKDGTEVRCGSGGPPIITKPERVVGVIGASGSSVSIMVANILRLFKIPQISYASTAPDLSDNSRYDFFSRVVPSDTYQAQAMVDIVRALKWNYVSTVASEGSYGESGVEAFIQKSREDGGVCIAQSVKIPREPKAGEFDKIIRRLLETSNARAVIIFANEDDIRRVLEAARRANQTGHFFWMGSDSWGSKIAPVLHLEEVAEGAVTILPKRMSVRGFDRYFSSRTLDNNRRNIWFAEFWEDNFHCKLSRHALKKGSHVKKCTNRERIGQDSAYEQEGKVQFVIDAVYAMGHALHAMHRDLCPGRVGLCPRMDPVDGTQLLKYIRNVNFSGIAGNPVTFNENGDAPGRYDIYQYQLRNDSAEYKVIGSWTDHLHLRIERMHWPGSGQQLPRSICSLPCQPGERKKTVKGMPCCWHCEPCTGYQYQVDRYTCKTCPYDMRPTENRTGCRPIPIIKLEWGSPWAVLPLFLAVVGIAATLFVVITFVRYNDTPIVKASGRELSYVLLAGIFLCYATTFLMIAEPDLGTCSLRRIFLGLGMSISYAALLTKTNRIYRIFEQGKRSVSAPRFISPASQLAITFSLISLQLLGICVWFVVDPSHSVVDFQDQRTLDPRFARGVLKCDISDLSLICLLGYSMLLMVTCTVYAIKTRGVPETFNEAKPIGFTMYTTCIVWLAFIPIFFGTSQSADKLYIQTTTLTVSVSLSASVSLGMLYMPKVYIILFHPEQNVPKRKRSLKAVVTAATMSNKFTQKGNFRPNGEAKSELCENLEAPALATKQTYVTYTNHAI

On to `COc1ccc(-c2nc(-c3ccc(NC(=O)c4cccs4)cc3)no2)cc1` [Compound 17c], for which the “mGlu4 receptor PAM activity” value on mGlu4 receptor is listed as “not tolerated”.

For `O=C(Nc1ccc(-c2noc(-c3ccccc3Cl)n2)cc1)c1ccccn1` [Compound 17d], on mGlu4 receptor, the EC50 was 3700 nM, the Emax worked out at 116% and the “Fold shift of L-Glu dose-response curve” value was 1.8.

With `COc1cc(NC(=O)c2ccccn2)ccc1-c1noc(-c2ccccc2)n1` [Compound 33], at mGlu4 receptor, the EC50 is 1830 nM, the Emax is 130% and the “Fold shift of L-Glu dose-response curve” value is listed as 5.3.

Turning to `COc1cc(NC(=O)c2ccccn2)ccc1-c1noc(-c2cccc(Cl)c2)n1` [Compound 35], on mGlu4 receptor, the EC50 was determined as 5300 nM, the Emax was determined as 145% and the “Fold shift of L-Glu dose-response curve” value was determined as 2.2.

As to `COc1cc(NC(=O)c2ccccn2)ccc1-c1noc(-c2ccc(Cl)cc2)n1` [Compound 36], on mGlu4 receptor, the EC50 amounted to 1980 nM, the Emax is 157% and the “Fold shift of L-Glu dose-response curve” value is 2.0.

Turning to `COc1cc(NC(=O)c2ccccn2)ccc1-c1noc(-c2ccc(F)cc2Cl)n1` [Compound 38], on mGlu4 receptor, the EC50 turned out to be 1980 nM, the Emax stood at 124% and the “Fold shift of L-Glu dose-response curve” value is given as 4.6.

With `COc1cc(NC(=O)c2ncc(Cl)cc2F)ccc1-c1noc(-c2ccccc2Cl)n1` [Compound 40], the “mGlu4 receptor PAM activity” value on mGlu4 receptor is on record as “did not potentiate cAMP inhibition”.

As for `COc1cc(NC(=O)c2cccc(Cl)n2)ccc1-c1noc(-c2ccccc2Cl)n1` [Compound 41], on mGlu4 receptor, the EC50 stood at 1920 nM, the Emax worked out at 115% and the “Fold shift of L-Glu dose-response curve” value came to 4.1.

Consider `COc1ccc(Cl)c(C(=O)Nc2ccc(-c3noc(-c4ccccc4Cl)n3)c(OC)c2)n1` [Compound 42], for which the “mGlu4 receptor PAM activity” value on mGlu4 receptor is “did not potentiate cAMP inhibition”. Moreover, in the experiment with Albino Swiss mice [1] (over the doses 5, 10 and 20 mg/kg i.p.), the “effect on SIH response” value was “None of the administered doses of compound 42 statistically affected the SIH; also recorded: failed to alter SIH”. The “effect on DOI-induced HTR” value in the experiment on Albino Swiss mice [2] was “failed to alter SIH and block DOI-induced HTR”.

In the case of `COc1cc(NC(=O)c2cc(F)cc(F)n2)ccc1-c1noc(-c2ccccc2Cl)n1` [Compound 43], on mGlu4 receptor, the EC50 was determined as 2500 nM, the Emax was 134% and the “Fold shift of L-Glu dose-response curve” value is reported as 5.0.

For `COc1cc(NC(=O)c2ccncn2)ccc1-c1noc(-c2ccccc2Cl)n1` [Compound 45], on mGlu4 receptor, the EC50 came to 3100 nM, the Emax came to 118% and the “Fold shift of L-Glu dose-response curve” value is listed as 3.1.

Consider `COc1cc(NC(=O)c2nccs2)ccc1-c1noc(-c2ccccc2Cl)n1` [Compound 46], for which, at mGlu4 receptor, the concentration for a half-maximal effect (EC50) is 2200 nM, the Emax came to 126% and the “Fold shift of L-Glu dose-response curve” value was determined as 3.6.

On to `COc1cc(NC(=O)c2cccc(F)n2)ccc1-c1noc(-c2ccccc2F)n1` [Compound 47], for which, on mGlu4 receptor, the EC50 was 890 nM, the Emax amounted to 121% and the “Fold shift of L-Glu dose-response curve” value is on record as 6.9.

Regarding `COc1cc(NC(=O)c2nc(Cl)ccc2Cl)ccc1-c1noc(-c2ccccc2F)n1` [Compound 48], the “mGlu4 receptor PAM activity” value at mGlu4 receptor was “did not potentiate cAMP inhibition”.

With `O=C(Nc1ccc(-c2noc(-c3ccccc3Cl)n2)c(Cl)c1)c1cccc(F)n1` [Compound 50], the “mGlu4 receptor PAM activity” value on mGlu4 receptor was “unable to modulate mGlu4 receptor activity”.

Consider `O=C(Nc1ccc(-c2noc(-c3ccccc3Cl)n2)c(Cl)c1)c1cccc(Cl)n1` [Compound 51], for which the “mGlu4 receptor PAM activity” value on mGlu4 receptor is recorded as “unable to modulate mGlu4 receptor activity”.

Regarding `O=C(Nc1ccc(-c2noc(-c3ccc(F)cc3Cl)n2)c(Cl)c1)c1ccccn1` [Compound 53], on mGlu4 receptor, the EC50 turned out to be 1350 nM, the Emax amounted to 119% and the “Fold shift of L-Glu dose-response curve” value came to 2.1.

In the case of `COc1ccccc1-c1nc(-c2ccc(NC(=O)c3ccccn3)cc2Cl)no1` [Compound 54], on mGlu4 receptor, the EC50 turned out to be 750 nM, the Emax turned out to be 111% and the “Fold shift of L-Glu dose-response curve” value turned out to be 2.2.

Turning to `O=C(Nc1ccc(-c2noc(-c3ccccc3)n2)c(F)c1)c1ccccn1` [Compound 55], on mGlu4 receptor, the EC50 was determined as 2560 nM, the Emax was found to be 127% and the “Fold shift of L-Glu dose-response curve” value was determined as 3.0.

With `O=C(Nc1ccc(-c2noc(-c3ccccc3)n2)c(C(F)(F)F)c1)c1ccccn1` [Compound 59], on mGlu4 receptor, the EC50 was 740 nM, the Emax was 150% and the “Fold shift of L-Glu dose-response curve” value came to 7.6.

As for `Cc1cc(NC(=O)c2ccccn2)ccc1-c1noc(-c2ccccc2)n1` [Compound 61], on mGlu4 receptor, the EC50 is 1650 nM, the Emax is 128% and the “Fold shift of L-Glu dose-response curve” value turned out to be 5.1.

For the compound `CN1C(=O)CN=C(c2ccccc2)c2cc(Cl)ccc21` [diazepam, reference compound], in the experiment on Albino Swiss mice [1] (5 mg/kg i.p., 60 min before test), the “effect on SIH response” value is “significantly reduced SIH”.
